In BindingDB's records for doi:10.1021/acs.jmedchem.8b00864 (2018):

Each compound was assayed against 2-acylglycerol O-acyltransferase 2 (MOGAT2, Homo sapiens) (UniProt Q3SYC2) (assay: Inhibition of recombinant human MGAT2).
Chain of 2-acylglycerol O-acyltransferase 2 (MOGAT2, Homo sapiens) (Q3SYC2 whole entry, looked up): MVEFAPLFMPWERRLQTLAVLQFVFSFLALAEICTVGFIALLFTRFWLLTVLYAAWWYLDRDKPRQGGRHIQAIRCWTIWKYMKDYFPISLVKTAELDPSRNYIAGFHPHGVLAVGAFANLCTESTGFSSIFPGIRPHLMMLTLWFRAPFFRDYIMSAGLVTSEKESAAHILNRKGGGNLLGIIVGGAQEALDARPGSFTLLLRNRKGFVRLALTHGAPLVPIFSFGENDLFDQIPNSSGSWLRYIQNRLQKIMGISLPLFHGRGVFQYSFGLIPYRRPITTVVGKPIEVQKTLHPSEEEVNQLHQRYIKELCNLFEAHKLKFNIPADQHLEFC

Row | Compound | IC50
1 | O=c1c2c(nc(SCc3cccnc3)n1-c1ccccc1)CCN(c1nc3cc(C(F)(F)F)ccc3[nH]1)C2 | 56 nM
2 | O=C1N[C@@](c2ccc(OCCCC(F)(F)F)cc2F)(C(F)(F)F)CC(c2ncc(C3CC3)s2)=C1n1nn[nH]c1=O | 2 nM
3 | O=C(CNCCCCCOc1ccc(C(F)(F)F)cc1)N1CCc2nc(SC3CCC3)n(-c3ccccc3)c(=O)c2C1 | 0.64 nM
4 | CCOC(=O)CCc1ccc(CN2CC(C(=O)N3CCc4nc(SC5CCCCC5)n(-c5ccccc5)c(=O)c4C3)C2)cc1 | 4 nM
5 | CC(C)(C)c1cc(C(C)(C)C)nc(N2CCn3c(nnc3-c3ccc(OC(F)(F)F)cc3)C2)n1 | 19 nM
6 | Cc1ccc(C2=C(C(=O)Nc3ccc(-c4nnn[nH]4)cc3)C(=O)N[C@@](c3ccc(OCCCC(F)(F)F)cc3F)(C(F)(F)F)C2)cc1 | 7 nM
7 | O=C1N[C@@]2(CCc3cc(OCCCC(F)(F)F)ccc32)CC(c2cnc(C3CC3)s2)=C1c1noc(=O)[nH]1 | < 1 nM
8 | CCc1ccc(-c2cc(-c3ccc(OCCCCCC(F)(F)F)cc3C(F)(F)F)[nH]c(=O)c2-c2nn[nH]n2)s1 | 0.3 nM
9 | O=C(CCNCC1COc2ccccc2O1)N1CCc2nc(SC3CCC3)n(-c3ccccc3)c(=O)c2C1 (configuration not stated) | 1.1 nM

The compounds below were run against 2-acylglycerol O-acyltransferase 2 (MOGAT2, Homo sapiens) (UniProt Q3SYC2) (assay: Inhibition of recombinant human MGAT2 expressed in sf9 cells using 2-monooleoyl glycerol/[14C]-oleoyl CoA as substrate by microscintillation counting method).

Row | Compound | IC50
10 | CC(C)(C)C1CCN(Cc2ccc([C@H](NS(C)(=O)=O)C(F)(F)F)cc2)CC1 | 58 nM
11 | CS(=O)(=O)N[C@@H](c1ccc(CNC[C@H]2COc3cccnc3O2)cc1)C(F)(F)F | 3.8 nM

What follows are compounds tested against 2-acylglycerol O-acyltransferase 2 (MOGAT2, Homo sapiens) (UniProt Q3SYC2) (assay: Inhibition of recombinant human MGAT2 using 2-monooleoyl glycerol/[1-14C]-oleoyl CoA as substrate after 30 mins by liquid scintillation counting method).

Row | Compound | IC50
12 | O=C(CCNC1Cc2ccccc2C1)N1CCc2nc(SC3CCC3)n(-c3ccccc3)c(=O)c2C1 | 0.38 nM
